The values that follow come from PubChem BioAssay AID330 (DTP/NCI, 2004).

The test relates to P388 leukemia ip, CD2F1 mice, survival T/C. Briefly: NCI In Vivo Anticancer Drug Screen. Data for tumor model P388 Leukemia (intraperitoneal) in CD2F1 (CDF1) mice. The conditions noted are these: endpoint: median survival time, higher = longer survival. In outline:
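Mice carrying the transplanted tumor received test compound or vehicle. Survival was recorded in each group, and the value is the treated-group measurement divided by that of the vehicle-treated control group.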

Setting [1] is: dose: 25.0 mg/kg/injection, schedule: Q01DX009 (ip), vehicle: Klucel (hydroxypropylcellulose) (HPC).
Setting [2] is: dose: 50.0 mg/kg/injection, schedule: Q01DX009 (ip), vehicle: Klucel (hydroxypropylcellulose) (HPC).
The mark [3] stands for this setting: dose: 100.0 mg/kg/injection, schedule: Q01DX009 (ip), vehicle: Klucel (hydroxypropylcellulose) (HPC).
Where [4] appears, read: dose: 200.0 mg/kg/injection, schedule: Q01DX009 (ip), vehicle: Klucel (hydroxypropylcellulose) (HPC).
Setting [5] is: dose: 25.0 mg/kg/injection, schedule: Q01DX009 (ip), vehicle: saline with Tween-80.
The mark [6] stands for this setting: dose: 50.0 mg/kg/injection, schedule: Q01DX009 (ip), vehicle: saline with Tween-80.
Where [7] appears, read: dose: 60.0 mg/kg/injection, schedule: Q01DX005 (ip), vehicle: saline with Tween-80.
Where [8] appears, read: dose: 120.0 mg/kg/injection, schedule: Q01DX005 (ip), vehicle: saline with Tween-80.
The mark [9] stands for this setting: dose: 240.0 mg/kg/injection, schedule: Q01DX005 (ip), vehicle: saline with Tween-80.
[10] abbreviates: dose: 50.0 mg/kg/injection, schedule: Q01DX005 (ip), vehicle: Klucel (hydroxypropylcellulose) (HPC).
The mark [11] stands for this setting: dose: 100.0 mg/kg/injection, schedule: Q01DX005 (ip), vehicle: Klucel (hydroxypropylcellulose) (HPC).
[12] abbreviates: dose: 200.0 mg/kg/injection, schedule: Q01DX005 (ip), vehicle: Klucel (hydroxypropylcellulose) (HPC).

Values joined by “and” are separate entries in the source; they are usually repeats but may differ in a detail not shown here. Equal entries are not always repeated. Toxic doses and inconclusive results are not listed.

For the molecule `O=C(O)c1ccc2c3c(ccc(C(=O)O)c13)CC2`, the T/C under setting [1] is 105 % of control, the T/C under setting [2] was 102 % of control and the T/C under setting [3] is 99 % of control.
Consider `CC(=O)Nc1nc(CCl)cs1`, for which the T/C under setting [1] was 100 % of control, the T/C under setting [2] was 102 % of control, the T/C under setting [3] was 103 % of control and the T/C under setting [4] is 110 % of control.
Regarding `C=C(C)[C@H]1Cc2c(ccc3c2O[C@@H]2COc4cc(OC)c(OC)cc4[C@@H]2C3=O)O1`, the T/C by setting is: (dose: 1.5 mg/kg/injection, schedule: Q01DX009 (ip), vehicle: saline with Tween-80) 110 % of control; (dose: 1.5 mg/kg/injection, schedule: Q04DX003 (ip), vehicle: saline with Tween-80) 100 % of control; (dose: 3.0 mg/kg/injection, schedule: Q01DX009 (ip), vehicle: saline with Tween-80) 115 % of control; (dose: 3.0 mg/kg/injection, schedule: Q04DX003 (ip), vehicle: saline with Tween-80) 100 % of control; (dose: 6.0 mg/kg/injection, schedule: Q01DX009 (ip), vehicle: saline with Tween-80) 120 % of control; (dose: 6.0 mg/kg/injection, schedule: Q04DX003 (ip), vehicle: saline with Tween-80) 104 % of control. In addition, the T/C (dose: 12.5 mg/kg/injection, schedule: Q01DX001 (ip), vehicle: saline with Tween-80) was 110 % of control; the T/C (dose: 25.0 mg/kg/injection, schedule: Q01DX001 (ip), vehicle: saline with Tween-80) was 114 % of control; the T/C (dose: 50.0 mg/kg/injection, schedule: Q01DX001 (ip), vehicle: saline with Tween-80) was 112 % of control.
As to `Oc1ccc(Nc2ccnc3cc(Cl)ccc23)cc1CN(CCCl)CCCl`, the T/C was 119 % of control (dose: 0.16 mg/kg/injection, schedule: Q01DX009 (ip), vehicle: saline); 123 % of control (dose: 0.31 mg/kg/injection, schedule: Q01DX009 (ip), vehicle: saline); 150 % of control (dose: 0.63 mg/kg/injection, schedule: Q01DX009 (ip), vehicle: saline); 101 % of control (dose: 1.25 mg/kg/injection, schedule: Q01DX009 (ip), vehicle: saline); 153 % of control and 156 % of control (dose: 2.5 mg/kg/injection, schedule: Q01DX009 (ip), vehicle: saline).
Take `O=C(CCl)SCc1ccccc1`: the T/C was 107 % of control (dose: 100.0 mg/kg/injection, schedule: Q04DX003 (ip), vehicle: saline with Tween-80) and 99 % of control (dose: 200.0 mg/kg/injection, schedule: Q04DX003 (ip), vehicle: saline with Tween-80).
As to `c1ccc(-c2cc3cc4c(cc3[nH]2)Oc2ccccc2O4)cc1`, the T/C (dose: 17.5 mg/kg/injection, schedule: Q01DX009 (ip), vehicle: Klucel (hydroxypropylcellulose) (HPC)) was 100 % of control and 103 % of control and 109 % of control; the T/C (dose: 35.0 mg/kg/injection, schedule: Q01DX009 (ip), vehicle: Klucel (hydroxypropylcellulose) (HPC)) is 100 % of control (2×) and 105 % of control; the T/C (dose: 70.0 mg/kg/injection, schedule: Q01DX009 (ip), vehicle: Klucel (hydroxypropylcellulose) (HPC)) is 100 % of control and 103 % of control and 122 % of control; the T/C (dose: 140.0 mg/kg/injection, schedule: Q01DX009 (ip), vehicle: Klucel (hydroxypropylcellulose) (HPC)) was 100 % of control.
Consider `CCOC(=O)Nc1cc2c(c(N)n1)N=C(c1ccc(C)cc1)CN2`, for which the T/C was 109 % of control (dose: 1.0 mg/kg/injection, schedule: Q01DX005 (ip), vehicle: saline with Tween-80); 109 % of control (dose: 3.0 mg/kg/injection, schedule: Q01DX005 (ip), vehicle: saline with Tween-80); 121 % of control (dose: 6.0 mg/kg/injection, schedule: Q01DX005 (ip), vehicle: saline with Tween-80).
`[O-][n+]1ccccc1C[P+](c1ccccc1)(c1ccccc1)c1ccccc1`: the T/C (dose: 6.25 mg/kg/injection, schedule: Q01DX009 (ip), vehicle: water) was 99 % of control; the T/C (dose: 12.5 mg/kg/injection, schedule: Q01DX009 (ip), vehicle: water) was 100 % of control and 86 % of control; the T/C (dose: 25.0 mg/kg/injection, schedule: Q01DX009 (ip), vehicle: water) was 95 % of control; the T/C (dose: 50.0 mg/kg/injection, schedule: Q01DX009 (ip), vehicle: water) is 100 % of control and 98 % of control.
With `CCCCC([Se])=NCCC(C)C`, the T/C reads like this: (dose: 6.25 mg/kg/injection, schedule: Q01DX009 (ip), vehicle: Klucel (hydroxypropylcellulose) (HPC)) 105 % of control; (dose: 12.5 mg/kg/injection, schedule: Q01DX009 (ip), vehicle: Klucel (hydroxypropylcellulose) (HPC)) 108 % of control; under setting [1], 93 % of control.
With `O=C(O)C(O)COc1nsnc1N1CCOCC1` (centres undefined), the T/C runs as follows: under setting [2], 107 % of control; under setting [3], 102 % of control; under setting [4], 107 % of control.
Take `Nc1cccc2cccnc12` (tested in a mixture with another compound): the T/C reads like this: (dose: 6.25 mg/kg/injection, schedule: Q01DX009 (ip), vehicle: saline with Tween-80) 97 % of control; (dose: 12.5 mg/kg/injection, schedule: Q01DX009 (ip), vehicle: saline with Tween-80) 103 % of control; under setting [5], 106 % of control; under setting [6], 104 % of control.
With `O=C(O)C(Cc1ccccc1N(CCO)CCO)N1C(=O)c2ccccc2C1=O` (centres undefined), the T/C runs as follows: under setting [5], 99 % of control; under setting [6], 93 % of control; (dose: 100.0 mg/kg/injection, schedule: Q01DX009 (ip), vehicle: saline with Tween-80) 93 % of control; (dose: 200.0 mg/kg/injection, schedule: Q01DX009 (ip), vehicle: saline with Tween-80) 96 % of control.
With `N#CC(C(=O)CCc1nc2ccccc2[nH]1)c1c(Cl)cccc1Cl` (centres undefined), the T/C was 109 % of control under setting [7], 101 % of control under setting [8] and 102 % of control under setting [9].
As to `CCOC(=O)C(Cc1ccc(N(CCCl)CCCl)cc1)NC(=O)C(Cc1ccc([N+](=O)[O-])cc1)NC(C)=O` (centres undefined), the T/C (dose: 5.0 mg/kg/injection, schedule: Q04DX003 (ip), vehicle: water) is 91 % of control; the T/C (dose: 10.0 mg/kg/injection, schedule: Q04DX003 (ip), vehicle: water) is 91 % of control; the T/C (dose: 20.0 mg/kg/injection, schedule: Q04DX003 (ip), vehicle: water) was 90 % of control; the T/C (dose: 40.0 mg/kg/injection, schedule: Q04DX003 (ip), vehicle: other) is 88 % of control; the T/C (dose: 40.0 mg/kg/injection, schedule: Q04DX003 (ip), vehicle: water) is 98 % of control; the T/C (dose: 80.0 mg/kg/injection, schedule: Q04DX003 (ip), vehicle: other) is 91 % of control. Also, the T/C was 90 % of control (dose: 100.0 mg/kg/injection, schedule: Q04DX003 (ip), vehicle: other); 94 % of control (dose: 160.0 mg/kg/injection, schedule: Q04DX003 (ip), vehicle: other); 102 % of control (dose: 200.0 mg/kg/injection, schedule: Q04DX003 (ip), vehicle: other); 112 % of control (dose: 400.0 mg/kg/injection, schedule: Q04DX003 (ip), vehicle: other).
For `Cc1cc2c(=O)[nH]cnc2n1C1C(O)CCCC1O` (centres undefined), the T/C under setting [10] is 106 % of control, the T/C under setting [11] is 104 % of control and the T/C under setting [12] is 107 % of control.
For `Clc1cccc(Cl)c1C(Nc1nccs1)Nc1nccs1`, the T/C was 100 % of control under setting [10], 103 % of control under setting [11] and 114 % of control under setting [12].
For `CCCc1nc(NC(=O)c2ccccc2)nc(NC(=O)c2ccccc2)n1`, the T/C runs as follows: (dose: 50.0 mg/kg/injection, schedule: Q01DX005 (ip), vehicle: saline with Tween-80) 102 % of control; (dose: 100.0 mg/kg/injection, schedule: Q01DX005 (ip), vehicle: saline with Tween-80) 106 % of control; (dose: 200.0 mg/kg/injection, schedule: Q01DX005 (ip), vehicle: saline with Tween-80) 106 % of control.
On to `COc1nc(NC2OC(COC(C)=O)C(OC(C)=O)C(OC(C)=O)C2OC(C)=O)c(N=C(C)C(C)=O)c(=O)n1C` (centres undefined), for which the T/C was 99 % of control under setting [7], 95 % of control under setting [8] and 95 % of control under setting [9].
Take `C=C(C)c1nn(-c2ccccc2)c2c1C(=O)CC(C)O2` (centres undefined): the T/C is 98 % of control under setting [7], 100 % of control under setting [8] and 98 % of control under setting [9].
Consider `N#CCCN(CCC#N)P(=O)(N(CCC#N)CCC#N)N(CCC#N)CCC#N`, for which the T/C reads like this: under setting [10], 100 % of control; under setting [11], 96 % of control; under setting [12], 100 % of control.
